Experimental data reported in ChEMBL document CHEMBL4706640, “Structure-Based Drug Design and Synthesis of PI3Kα-Selective Inhibitor (PF-06843195)” (J Med Chem, 2021).
≈ marks a conversion by molar mass, not a printed value.

Columns and labels:
[1] = test system: MCF7; test: Antiproliferation activity against human MCF7 cells assessed as reduction in cell viability incubated for 7 days by Cell-titer Glo reagent based assay; type: functional; settings: MCF7, 168 h
[2] = target: Phosphatidylinositol 4,5-bisphosphate 3-kinase catalytic subunit beta isoform (Homo sapiens, UniProt P42338); test: Inhibition of recombinant human N-terminal Myr signal and C-terminal Flag-tagged PI3K p110beta expressed in rat Rat1 cells; type: cell-based
Chain of Phosphatidylinositol 4,5-bisphosphate 3-kinase catalytic subunit beta isoform (P42338 whole entry, canonical isoform): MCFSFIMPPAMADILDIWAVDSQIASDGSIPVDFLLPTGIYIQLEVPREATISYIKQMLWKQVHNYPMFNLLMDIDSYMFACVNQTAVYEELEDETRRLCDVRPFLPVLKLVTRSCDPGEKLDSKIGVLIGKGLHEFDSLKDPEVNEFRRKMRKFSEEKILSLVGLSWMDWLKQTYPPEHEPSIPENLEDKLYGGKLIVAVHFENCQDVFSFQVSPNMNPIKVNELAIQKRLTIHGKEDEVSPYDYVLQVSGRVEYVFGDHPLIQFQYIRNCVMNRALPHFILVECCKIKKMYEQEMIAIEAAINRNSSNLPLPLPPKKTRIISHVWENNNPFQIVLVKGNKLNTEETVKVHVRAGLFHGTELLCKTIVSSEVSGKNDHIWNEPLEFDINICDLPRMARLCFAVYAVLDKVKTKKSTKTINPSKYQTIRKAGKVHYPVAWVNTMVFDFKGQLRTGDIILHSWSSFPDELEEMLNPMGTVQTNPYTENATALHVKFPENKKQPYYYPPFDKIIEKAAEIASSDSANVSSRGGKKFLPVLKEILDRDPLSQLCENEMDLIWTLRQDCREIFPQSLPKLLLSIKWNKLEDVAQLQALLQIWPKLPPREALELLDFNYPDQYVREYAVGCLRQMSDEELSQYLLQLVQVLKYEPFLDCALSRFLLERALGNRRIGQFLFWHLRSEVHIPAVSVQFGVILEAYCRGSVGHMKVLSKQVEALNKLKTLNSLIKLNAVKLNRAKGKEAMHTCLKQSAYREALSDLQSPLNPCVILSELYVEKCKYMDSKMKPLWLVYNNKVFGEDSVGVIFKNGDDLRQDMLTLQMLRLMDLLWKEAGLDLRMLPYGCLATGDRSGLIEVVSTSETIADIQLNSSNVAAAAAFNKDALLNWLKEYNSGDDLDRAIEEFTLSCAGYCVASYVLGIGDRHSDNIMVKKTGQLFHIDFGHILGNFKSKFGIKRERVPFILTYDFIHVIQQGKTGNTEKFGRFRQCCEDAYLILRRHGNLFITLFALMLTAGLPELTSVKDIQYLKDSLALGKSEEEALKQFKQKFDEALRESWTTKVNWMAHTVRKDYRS

[3] = Inhibition of PI3K p110alpha […] mutant in human MCF7 cells assessed as reduction in phosphorylation of Akt at T308 residue incubated for 2 hrs by ELISA; type: cell-based; settings: MCF7, 2 h
[4] = target: PI3-kinase p110-alpha/p85-alpha (Homo sapiens, UniProt P42336); test: Inhibition of recombinant human full-length PI3K p110alpha/p85alpha (322 to 600) expressed in baculovirus infected Sf21 cells using phosphatidylinositol 4,5-bisphosphate as substrate preincubated for 15 mins followed by addition of ATP and measured after 30 mins by fluorescence polarisation assay
Chain of PI3-kinase p110-alpha/p85-alpha (P27986 whole entry): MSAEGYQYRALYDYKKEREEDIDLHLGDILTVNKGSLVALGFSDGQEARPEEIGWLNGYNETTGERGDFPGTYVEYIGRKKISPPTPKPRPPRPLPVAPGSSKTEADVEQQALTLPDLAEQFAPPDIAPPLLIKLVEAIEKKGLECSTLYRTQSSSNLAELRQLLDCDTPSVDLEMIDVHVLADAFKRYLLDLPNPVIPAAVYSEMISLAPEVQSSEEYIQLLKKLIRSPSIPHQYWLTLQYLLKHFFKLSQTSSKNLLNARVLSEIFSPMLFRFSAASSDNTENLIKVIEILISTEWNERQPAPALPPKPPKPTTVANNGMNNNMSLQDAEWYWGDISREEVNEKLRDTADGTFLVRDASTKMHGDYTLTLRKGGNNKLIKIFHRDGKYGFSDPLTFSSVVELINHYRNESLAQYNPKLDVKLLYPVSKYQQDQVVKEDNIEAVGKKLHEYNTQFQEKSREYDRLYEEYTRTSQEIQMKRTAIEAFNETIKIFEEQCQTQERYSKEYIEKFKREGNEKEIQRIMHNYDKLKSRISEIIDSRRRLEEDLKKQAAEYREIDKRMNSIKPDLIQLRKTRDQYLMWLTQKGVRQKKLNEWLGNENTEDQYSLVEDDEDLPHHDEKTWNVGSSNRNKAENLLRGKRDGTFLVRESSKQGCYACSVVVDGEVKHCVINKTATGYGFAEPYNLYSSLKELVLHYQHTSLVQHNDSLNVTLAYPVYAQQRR
Chain of PI3-kinase p110-alpha/p85-alpha (P42336 whole entry): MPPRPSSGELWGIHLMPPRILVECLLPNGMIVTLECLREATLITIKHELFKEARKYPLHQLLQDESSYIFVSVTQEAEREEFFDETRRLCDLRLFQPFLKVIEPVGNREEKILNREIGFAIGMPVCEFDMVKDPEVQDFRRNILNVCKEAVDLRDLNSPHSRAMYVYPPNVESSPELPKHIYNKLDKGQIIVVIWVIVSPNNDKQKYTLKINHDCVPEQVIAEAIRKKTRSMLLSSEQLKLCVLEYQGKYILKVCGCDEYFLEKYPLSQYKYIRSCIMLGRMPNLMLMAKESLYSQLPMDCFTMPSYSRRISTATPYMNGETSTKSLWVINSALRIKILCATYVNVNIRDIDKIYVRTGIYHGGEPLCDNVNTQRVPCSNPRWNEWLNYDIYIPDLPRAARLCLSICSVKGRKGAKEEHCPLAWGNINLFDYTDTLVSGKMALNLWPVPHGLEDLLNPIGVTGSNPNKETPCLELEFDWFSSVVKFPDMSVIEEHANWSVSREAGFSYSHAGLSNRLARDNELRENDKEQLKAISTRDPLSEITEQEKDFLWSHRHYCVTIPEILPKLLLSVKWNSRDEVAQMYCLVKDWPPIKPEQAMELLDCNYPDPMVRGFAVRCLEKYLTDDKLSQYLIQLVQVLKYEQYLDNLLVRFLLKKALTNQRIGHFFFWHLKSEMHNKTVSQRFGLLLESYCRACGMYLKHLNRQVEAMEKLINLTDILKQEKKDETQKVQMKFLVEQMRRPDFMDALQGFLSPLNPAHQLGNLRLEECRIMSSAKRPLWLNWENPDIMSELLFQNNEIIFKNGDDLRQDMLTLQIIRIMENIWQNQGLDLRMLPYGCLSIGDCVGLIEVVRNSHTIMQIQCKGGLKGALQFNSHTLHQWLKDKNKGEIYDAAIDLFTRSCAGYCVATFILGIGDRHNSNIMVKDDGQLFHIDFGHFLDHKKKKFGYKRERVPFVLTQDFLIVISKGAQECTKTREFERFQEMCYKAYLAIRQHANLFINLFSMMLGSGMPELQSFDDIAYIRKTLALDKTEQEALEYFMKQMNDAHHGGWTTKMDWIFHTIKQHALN

[5] = test system: Rat1; test: Selectivity index, ratio of IC50 for recombinant human N-terminal Myr signal and C-terminal Flag-tagged PI3K p110delta to IC50 for recombinant human N-terminal Myr signal and C-terminal Flag-tagged PI3K p110alpha expressed in rat Rat1 cells; type: cell-based
[6] = target: PI3-kinase p110-delta/p85-alpha (Homo sapiens, UniProt O00329); test: Inhibition of recombinant human PI3K p110delta/p85alpha using phosphatidylinositol 4,5-bisphosphate as substrate preincubated for 15 mins followed by addition of ATP and measured after 30 mins by fluorescence polarisation assay; type: protein-complex assay
Chain of PI3-kinase p110-delta/p85-alpha (P27986 whole entry, one chain of several): as the sequence (P27986 whole entry) above

[7] = Half life in Wistar Han rat at 2 mg/kg, iv; type: ADME, organism-based; settings: in vivo
[8] = organism: Homo sapiens; test: Selectivity index, ratio of IC50 for mTOR in human MCF7 cells to Ki for recombinant human full-length PI3K p110alpha/p85alpha; type: cell-based
[9] = Kinetic solubility of compound; type: physicochemical; settings: read-out: Kinetic_solubility
[10] = Plasma clearance in Wistar Han rat at 2 mg/kg, iv; type: ADME, organism-based
[11] = Distribution coefficient, logD of compound at pH 7.4; type: physicochemical; settings: octanol/water
[12] = Kinetic solubility of compound at pH 7.4 after 24 hrs by LC/MS/MS analysis; type: physicochemical; settings: buffer, read-out: Kinetic_solubility
[13] = target: T1, Phosphatidylinositol 4,5-bisphosphate 3-kinase catalytic subunit delta isoform (Homo sapiens, UniProt O00329); test: Inhibition of recombinant human N-terminal Myr signal and C-terminal Flag-tagged PI3K p110delta expressed in rat Rat1 cells; type: cell-based
T1 sequence (O00329 whole entry): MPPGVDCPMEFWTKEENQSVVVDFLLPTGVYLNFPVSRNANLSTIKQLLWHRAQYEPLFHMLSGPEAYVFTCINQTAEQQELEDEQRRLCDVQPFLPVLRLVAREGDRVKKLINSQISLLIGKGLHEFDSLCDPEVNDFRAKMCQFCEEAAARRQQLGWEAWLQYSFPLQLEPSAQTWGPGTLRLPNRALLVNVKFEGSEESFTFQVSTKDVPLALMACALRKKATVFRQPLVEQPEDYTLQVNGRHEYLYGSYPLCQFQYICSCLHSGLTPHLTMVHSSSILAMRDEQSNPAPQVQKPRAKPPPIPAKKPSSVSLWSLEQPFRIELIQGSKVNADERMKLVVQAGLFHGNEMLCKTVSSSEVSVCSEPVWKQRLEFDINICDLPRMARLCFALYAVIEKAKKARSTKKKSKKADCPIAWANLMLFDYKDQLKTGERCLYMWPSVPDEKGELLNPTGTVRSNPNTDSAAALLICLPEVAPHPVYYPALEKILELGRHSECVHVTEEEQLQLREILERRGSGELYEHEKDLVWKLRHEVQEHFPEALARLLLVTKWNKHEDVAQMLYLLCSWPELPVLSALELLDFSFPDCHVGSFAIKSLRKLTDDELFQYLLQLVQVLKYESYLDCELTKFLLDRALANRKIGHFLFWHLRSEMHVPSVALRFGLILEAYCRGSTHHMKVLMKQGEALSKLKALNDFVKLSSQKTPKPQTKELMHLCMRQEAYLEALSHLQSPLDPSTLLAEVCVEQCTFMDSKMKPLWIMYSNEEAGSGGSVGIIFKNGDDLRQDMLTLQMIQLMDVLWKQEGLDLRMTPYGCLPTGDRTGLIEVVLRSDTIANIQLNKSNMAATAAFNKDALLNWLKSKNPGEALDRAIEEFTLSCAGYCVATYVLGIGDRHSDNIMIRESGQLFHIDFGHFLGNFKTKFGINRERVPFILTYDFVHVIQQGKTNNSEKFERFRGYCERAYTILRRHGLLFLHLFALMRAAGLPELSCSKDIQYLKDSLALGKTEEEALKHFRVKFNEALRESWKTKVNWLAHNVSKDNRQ

[14] = Apparent intrinsic clearance in human liver microsomes; type: ADME, Microsome; settings: read-out: CLH(app)
[15] = Cmax in Wistar Han rat at 10 mg/kg, po; type: ADME, organism-based; parameters: route oral, dose 10 mg/kg; settings: in vivo
[16] = target: Serine/threonine-protein kinase mTOR (Homo sapiens, UniProt P42345); test: Inhibition of mTOR in TSC1 null human MCF7 cells assessed as decrease in p70S6K phosphorylation at Thr389 residue incubated for 2 hrs by ELISA; type: cell-based
[17] = Tmax in Wistar Han rat at 10 mg/kg, po; type: ADME, organism-based; settings: in vivo
[18] = Inhibition of PI3K p110alpha H1047R mutant in human T47D cells assessed as reduction in phosphorylation of Akt at T308 residue incubated for 2 hrs by ELISA; type: cell-based
[19] = Passive permeability of compound in RRCK cells; type: ADME, cell-based, Canis lupus familiaris, MDCKII-LE; settings: dog, MDCK; read-out: permeability
[20] = Volume of distribution at steady state in Wistar Han rat at 2 mg/kg, iv; type: ADME, organism-based; settings: in vivo, read-out: Vdss
[21] = Oral bioavailability in Wistar Han rat at 10 mg/kg; type: ADME, organism-based; settings: in vivo
[22] = Thermodynamic solubility of compound at pH 7.4; type: physicochemical; settings: buffer, read-out: Therm_solubility
[23] = test system: Rat1; test: Selectivity index, ratio of IC50 for recombinant human N-terminal Myr signal and C-terminal Flag-tagged PI3K p110beta to IC50 for recombinant human N-terminal Myr signal and C-terminal Flag-tagged PI3K p110alpha expressed in rat Rat1 cells; type: cell-based
[24] = target: Phosphatidylinositol 4,5-bisphosphate 3-kinase catalytic subunit alpha isoform (Homo sapiens, UniProt P42336); test: Inhibition of recombinant human N-terminal Myr signal and C-terminal Flag-tagged PI3K p110alpha expressed in rat Rat1 cells; type: cell-based
Chain of Phosphatidylinositol 4,5-bisphosphate 3-kinase catalytic subunit alpha isoform (P42336 whole entry, canonical isoform): as the sequence (P42336 whole entry) above

[25] = organism: Homo sapiens; test: Selectivity index, ratio of IC50 for recombinant human N-terminal Myr signal and C-terminal Flag-tagged PI3K p110delta to Ki for recombinant human full-length PI3K p110alpha/p85alpha
[26] = AUC (0 to t) in Wistar Han rat at 2 mg/kg, iv; type: ADME, organism-based; parameters: dose 2 mg/kg; settings: in vivo
[27] = test system: T47D; test: Antiproliferation activity against human T47D cells assessed as reduction in cell viability incubated for 7 days by Cell-titer Glo reagent based assay; type: functional; settings: 168 h
[28] = organism: Homo sapiens; test: Selectivity index, ratio of IC50 for recombinant human N-terminal Myr signal and C-terminal Flag-tagged PI3K p110beta to Ki for recombinant human full-length PI3K p110alpha/p85alpha
[29] = AUC (0 to t) in Wistar Han rat at 10 mg/kg, po; type: ADME, organism-based; parameters: dose 10 mg/kg; settings: in vivo
[30] = target: PI3K p110 beta/p85 alpha (Homo sapiens, UniProt P42338); test: Inhibition of recombinant human PI3K p110beta/p85alpha using phosphatidylinositol 4,5-bisphosphate as substrate preincubated for 15 mins followed by addition of ATP and measured after 30 mins by fluorescence polarisation assay; type: protein-complex assay
Chain of PI3K p110 beta/p85 alpha (P27986 whole entry): as the sequence (P27986 whole entry) above
Chain of PI3K p110 beta/p85 alpha (P42338 whole entry): as the sequence (P42338 whole entry, canonical isoform) above

[31] = organism: Homo sapiens; test: Selectivity index, ratio of Ki for recombinant human PI3K p110delta/p85alpha to Ki for recombinant human full-length PI3K p110alpha/p85alpha (322 to 600) using phosphatidylinositol 4,5-bisphosphate as substrate
[32] = organism: Homo sapiens; test: Selectivity index, ratio of Ki for recombinant human PI3K p110beta/p85alpha to Ki for recombinant human full-length PI3K p110alpha/p85alpha (322 to 600) using phosphatidylinositol 4,5-bisphosphate as substrate

Nc1ncc(-c2nc(N3CCOCC3)nc(N[C@@]3(CO)CCN(C(=O)OCC(F)F)C3)c2F)cn1
IC50 [1]: 62 nM | IC50 [2]: 360 nM | IC50 [3]: 7.8 nM | Ki [4]: < 0.018 nM | Ratio IC50 [5]: 9 | Ki [6]: < 0.28 nM | half-life [7]: 3.6 h | Selectivity Index [8]: 83 | solubility kinetic [9]: 2.5 µM (≈ 1.25 µg/mL) | clearance [10]: 30 mL/min/kg | logD [11]: 1.9 | solubility kinetic at 24 h [12]: 1.3 µg/mL (≈ 2.61 µM) | IC50 [13]: 160 nM | microsomal CLint [14]: < 18 µL/min/mg | Cmax [15]: 330 ng/mL | IC50 [16]: 1500 nM | Tmax [17]: 1 h | IC50 [18]: 8.7 nM | Papp [19]: 13 ×10⁻⁶ cm/s | Vd [20]: 3 L/kg | bioavailability [21]: 25% | solubility thermodynamic [22]: 6.2 µg/mL (≈ 12.4 µM) | Ratio IC50 [23]: 20 | IC50 [24]: 18 nM | Selectivity Index [25]: 9 | AUC(0-t) [26]: 1100 ng·h/mL | IC50 [27]: 32 nM | Selectivity Index [28]: 20 | AUC(0-t) [29]: 1400 ng·h/mL | Ki [30]: 2 nM

CNS(=O)(=O)N1CC[C@H](N2CCc3c(-c4cnc(N)nc4)nc(N4CCOCC4)nc32)C1
Ki [4]: 0.12 nM | Ki [6]: 4.5 nM | solubility kinetic [9]: 380 µM (≈ 175 µg/mL) | logD [11]: 1.4 | microsomal CLint [14]: < 11 µL/min/mg | Ratio Ki [31]: 37 | Papp [19]: 16 ×10⁻⁶ cm/s | IC50 [24]: 130 nM | Ratio Ki [32]: 125 | Ki [30]: 16 nM

CC(C)C(=O)N1CC[C@](C)(N2CCc3c(-c4cnc(N)nc4)nc(N4CCOCC4)nc32)C1
IC50 [2]: 260 nM | Ki [4]: < 0.018 nM | Ratio IC50 [5]: 3 | Ki [6]: < 0.28 nM | solubility kinetic [9]: 500 µM (≈ 226 µg/mL) | logD [11]: 2.4 | IC50 [13]: 17 nM | microsomal CLint [14]: 46 µL/min/mg | Papp [19]: 36 ×10⁻⁶ cm/s | Ratio IC50 [23]: 37 | IC50 [24]: 6.9 nM | Ki [30]: 17 nM

CC(=O)N1CC[C@H](N2CCc3c(-c4cnc(N)nc4)nc(N4CCOCC4)nc32)C1
Ki [6]: 22 nM | solubility kinetic [9]: 530 µM (≈ 218 µg/mL) | logD [11]: 1.1 | microsomal CLint [14]: < 8 µL/min/mg | Ratio Ki [31]: 19 | Papp [19]: 13 ×10⁻⁶ cm/s | Ratio Ki [32]: 17 | Ki [30]: 20 nM

CC(C)(N)C(=O)N1CC[C@](C)(N2CCc3c(-c4cnc(N)nc4)nc(N4CCOCC4)nc32)C1
IC50 [2]: 330 nM | Ki [4]: 0.023 nM | Ratio IC50 [5]: 5 | Ki [6]: 2.5 nM | solubility kinetic [9]: 460 µM (≈ 215 µg/mL) | logD [11]: 0.4 | IC50 [13]: 120 nM | microsomal CLint [14]: < 9 µL/min/mg | Papp [19]: 4.2 ×10⁻⁶ cm/s | Ratio IC50 [23]: 13 | IC50 [24]: 25 nM | Ki [30]: 13 nM

CC(C)(C)OC(=O)N1CC[C@](C)(N2CCc3c(-c4cnc(N)nc4)nc(N4CCOCC4)nc32)C1
IC50 [2]: 640 nM | Ki [4]: < 0.018 nM | Ratio IC50 [5]: 14 | Ki [6]: 0.46 nM | solubility kinetic [9]: 97 µM (≈ 46.8 µg/mL) | logD [11]: 3.7 | IC50 [13]: 92 nM | microsomal CLint [14]: 160 µL/min/mg | Ratio Ki [31]: > 26 | Papp [19]: 21 ×10⁻⁶ cm/s | Ratio IC50 [23]: 94 | IC50 [24]: 6.8 nM | Ratio Ki [32]: > 1390 | Ki [30]: 25 nM

Cc1nc(NC(=O)N2CCC[C@H]2C(N)=O)sc1-c1ccnc(C(C)(C)C(F)(F)F)c1 [ALPELISIB]
IC50 [1]: 530 nM | IC50 [3]: 39 nM | IC50 [16]: 3000 nM | IC50 [18]: 30 nM | IC50 [27]: 420 nM
